Results: the supplement of paper PMC10307832

How the values were obtained:
Assay in all cases: relative viability (nuclei count vs DMSO), 5 days (fraction); higher = more cells survive
KN-93 + Pictilisib = compound: CN(C/C=C/C1=CC=C(C=C1)Cl)CC2=CC=CC=C2N(CCO)S(=O)(=O)C3=CC=C(C=C3)OC [KN-93] + CS(=O)(=O)N1CCN(Cc2cc3nc(-c4cccc5[nH]ncc45)nc(N4CCOCC4)c3s2)CC1 [Pictilisib] (partner 1 µM)
How it was run: (§1)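 Lung cancer cell lines were pin-tool dosed in 1536-well plates on the day after seeding, with either a lone drug or a fixed anchor-drug dose plus five library-drug doses (not always all listed) in √10 steps. Nuclei were counted on 4× images after 5 days. Relative viability is the ratio of treated-well to vehicle-well nuclei counts, with each value a median of duplicate plates.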

KN-93 + Linsitinib = compound: CN(C/C=C/C1=CC=C(C=C1)Cl)CC2=CC=CC=C2N(CCO)S(=O)(=O)C3=CC=C(C=C3)OC [KN-93] + C[C@]1(O)C[C@@H](c2nc(-c3ccc4ccc(-c5ccccc5)nc4c3)c3c(N)nccn32)C1 [Linsitinib] (partner 1 µM)
How it was run: as §1

KN-93 + Luminespib = compound: CN(C/C=C/C1=CC=C(C=C1)Cl)CC2=CC=CC=C2N(CCO)S(=O)(=O)C3=CC=C(C=C3)OC [KN-93] + CCNC(=O)c1noc(-c2cc(C(C)C)c(O)cc2O)c1-c1ccc(CN2CCOCC2)cc1 [Luminespib] (partner 0.01 µM)
How it was run: as §1

KN-93 + Phenformin = compound: CN(C/C=C/C1=CC=C(C=C1)Cl)CC2=CC=CC=C2N(CCO)S(=O)(=O)C3=CC=C(C=C3)OC [KN-93] + N=C(N)NC(=N)NCCc1ccccc1 [Phenformin] (partner 250 µM)
How it was run: as §1

KN-93 + Crizotinib = compound: CN(C/C=C/C1=CC=C(C=C1)Cl)CC2=CC=CC=C2N(CCO)S(=O)(=O)C3=CC=C(C=C3)OC [KN-93] + C[C@@H](Oc1cc(-c2cnn(C3CCNCC3)c2)cnc1N)c1c(Cl)ccc(F)c1Cl [Crizotinib] (partner 1 µM)
How it was run: as §1

Cell Line	relative viability (KN-93 + Pictilisib; first compound 0.08 µM)	relative viability (KN-93 + Pictilisib; first compound 0.253 µM)	relative viability (KN-93 + Pictilisib; first compound 2.53 µM)	relative viability (KN-93 + Pictilisib; first compound 8 µM)	relative viability (KN-93 + Linsitinib; first compound 0.08 µM)	relative viability (KN-93 + Linsitinib; first compound 0.253 µM)	relative viability (KN-93 + Linsitinib; first compound 2.53 µM)	relative viability (KN-93 + Linsitinib; first compound 8 µM)	relative viability (KN-93 + Luminespib; first compound 0.08 µM)	relative viability (KN-93 + Luminespib; first compound 0.253 µM)	relative viability (KN-93 + Luminespib; first compound 2.53 µM)	relative viability (KN-93 + Luminespib; first compound 8 µM)	relative viability (KN-93 + Phenformin; first compound 0.08 µM)	relative viability (KN-93 + Phenformin; first compound 0.253 µM)	relative viability (KN-93 + Phenformin; first compound 2.53 µM)	relative viability (KN-93 + Phenformin; first compound 8 µM)	relative viability (KN-93 + Crizotinib; first compound 0.08 µM)	relative viability (KN-93 + Crizotinib; first compound 0.253 µM)	relative viability (KN-93 + Crizotinib; first compound 2.53 µM)	relative viability (KN-93 + Crizotinib; first compound 8 µM)
NCI-H2405	0.407	0.319	0.446	0.305	0.984	0.908	0.924	0.564	0.752	0.76	0.778	0.446	0.379	0.479	0.718	0.354	0.853	0.832	0.873	0.665
NCI-H2023	0.3	0.212	0.22	0.167	0.613	0.669	0.657	0.532	0.693	0.703	0.872	0.358	0.365	0.466	0.496	0.247	0.795	0.855	0.745	0.439
PC-14		0.531	0.618	0.349	0.855	0.976	1.07	0.824	0.151	0.154	0.13	0.138	0.593	0.685	0.596	0.547	0.89	0.842	0.953	0.585
A-427	0.732	0.69	0.635	0.512	1.1	1.2	1.13	0.965	1.16	1.2	0.866	0.307	0.322	0.35	0.278	0.229	0.852	0.943	0.798	0.436
NCI-H1355	0.391	0.352	0.389	0.295	0.732	0.769	0.805	0.699	0.616	0.636	0.574	0.552	0.497	0.456	0.438	0.427	0.915	1.11	1.15	0.837
SK-LU-1	0.5	0.591	0.536	0.357	1.06	1.12	1.21	0.602	0.244	0.209	0.199	0.183	0.494	0.811	0.475	0.391	0.834	1.26	0.915	0.673
NCI-H1792		0.233	0.253	0.223		0.573	0.567	0.394	0.272	0.396	0.31	0.367	0.177		0.25	0.258		1.1	0.976	0.914
NCI-H1993	0.689	1.07	0.761	0.754	0.728	0.633	0.837	0.655	0.677	0.756	0.929	0.638	0.619	0.519	0.512	0.574	0.968	0.814	0.76	0.727
